{"source": "patent US8815234B2", "about": "“Treatment of human or animal body surface infection” (Insense Limited, priority 2009, dated 2014)", "test_system": "Trichophyton rubrum", "test": "In vitro flat bed static diffusion model, kill curves of Trichophyton rubrum", "type": "cell-based", "settings": "for effect of peroxidase in disc at lowest concentration compared to the test treatment alone: 1 μg ml^−1 enzyme in disc plus active topical treatment; for potentiation of the effects of the topical treatment by peroxidase within the disc (words): 1, 100 and 500 μg/ml enzyme in disc plus active topical treatment; for relative potency of horseradish peroxidase versus lactoperoxidase in enhancing fungal killing (words): enzyme in disc plus active topical treatment", "description": "Test discs were soaked in 50% serum containing 10^7 fungal cells to re-create a high protein environment. They were placed on a gel bed, also containing 50% serum to mimic contact with the nail bed. The discs were dosed with aqueous solutions of either horse radish peroxidase or lactoperoxidase, each set of discs having different dose levels of the enzymes. Control discs were left with no peroxidase of any kind. The experiment was started by applying hydrogen peroxide generating stratified patches (see below) to the surfaces of most of the test discs, and these were left in place for defined periods of time. Some discs were left uncovered as additional experimental controls to determine how well the fungal cells survived when left untreated. At set time-intervals, representative discs were removed for sampling, and the numbers of surviving fungal cells were determined by standard methods.\nAn in vitro flat bed static diffusion model was utilised, based upon the techniques described in “In vitro diffusion bed, 3-day repeat challenge ‘capacity’ test for antimicrobial wound dressings”, J. Greenman, R. M. S. Thorn, S. Saad, A. Austin International Wound Journal (2006), 3, 322-329.\nThe test inoculum was prepared by emulsifying mature surface growth biomass of Trichophyton rubrum on potato dextrose agar in Saboraud liquid medium, removing the suspension, vortex mixing, and then allowing large particles to settle out of solution. The resulting suspension was adjusted via spectrophotometry to give a standardised inoculum around 10^7 cfu ml^−1, which is sufficiently dense to enable any fungicidal effects to be detected (>10^3 cfu reduction is seen as indicative of a cidal effect).\nA 100 μl volume of the defined inocula was re-suspended in replicate cellulose discs on the surface of a poly-AMPS test bed (the formulation of which is identical to the Layer 1 hydrogel as described in Example 1, but cast as a 25 g gel sheet per 10×10 cm dish), whereby test products can then be applied (FIG. 1). A two layer dressing was tested. The layers were prepared as described in Example 1. Lactoperoxidase or horse radish peroxidase enzymes were prepared by dissolving in analytical water at the required concentration prior to use. It is thought that lactoperoxidase may potentiate any antifungal effects of the novel topical treatment, and for some of the experimental systems cellulose discs were pre-treated with a lactoperoxidase or horseradish peroxidise solution to ascertain differential effects.\nThe two layer dressings were activated by bringing the two layers together. The hydrogel sheet was placed into contact with the cellulose disc and the dry film then applied to the uppermost surface of the hydrogel sheet. Test beds were incubated at 28° C., and at set time intervals (0, 1, 2, 4 & 24 h); cellulose discs were removed, re-suspended in PBSa, serially diluted and then spiral plated onto Saboraud dextrose agar. After incubation (5 days) the number of dermatophyte survivors at different time points after treatment exposure was determined by colony counting (cfu disc^−1). The results were graphed and analysed using GraphPad Prism (v.4)."}
{"substance": "horseradish peroxidase [Horseradish peroxidise]", "values": [{"measurement": "effect of peroxidase in disc at lowest concentration compared to the test treatment alone", "result": "has a significant effect"}, {"measurement": "potentiation of the effects of the topical treatment by peroxidase within the disc (words)", "result": "potentiates the effects of the topical treatment in a concentration dependent manner"}, {"measurement": "potentiation of the effects of the topical treatment by peroxidase within the disc (words)", "setting": "listed as horse radish peroxidise", "result": "potentiate the effects of the topical treatment"}, {"measurement": "relative potency of horseradish peroxidase versus lactoperoxidase in enhancing fungal killing (words)", "setting": "listed as horse radish peroxidase", "result": "more potent than lactoperoxidase"}, {"measurement": "relative potency of horseradish peroxidase versus lactoperoxidase in enhancing fungal killing (words)", "setting": "listed as horseradish peroxidise", "result": "more efficacious"}]}
{"substance": "lactoperoxidase", "values": [{"measurement": "effect of peroxidase in disc at lowest concentration compared to the test treatment alone", "result": "no significant effect compared to the test treatment alone"}, {"measurement": "potentiation of the effects of the topical treatment by peroxidase within the disc (words)", "result": "potentiate the effects of the topical treatment in a concentration dependant manner"}, {"measurement": "potentiation of the effects of the topical treatment by peroxidase within the disc (words)", "setting": "listed as peroxidise", "result": "potentiate the effects of the topical treatment"}]}
